These results are taken from doi:10.1101/2022.12.25.521909v1 (biorxiv, 2022).

The assay addresses T1, human ABCC4 (ABCC4/MRP4) (Homo sapiens, UniProt O15439).
T1 sequence (O15439 1-1325): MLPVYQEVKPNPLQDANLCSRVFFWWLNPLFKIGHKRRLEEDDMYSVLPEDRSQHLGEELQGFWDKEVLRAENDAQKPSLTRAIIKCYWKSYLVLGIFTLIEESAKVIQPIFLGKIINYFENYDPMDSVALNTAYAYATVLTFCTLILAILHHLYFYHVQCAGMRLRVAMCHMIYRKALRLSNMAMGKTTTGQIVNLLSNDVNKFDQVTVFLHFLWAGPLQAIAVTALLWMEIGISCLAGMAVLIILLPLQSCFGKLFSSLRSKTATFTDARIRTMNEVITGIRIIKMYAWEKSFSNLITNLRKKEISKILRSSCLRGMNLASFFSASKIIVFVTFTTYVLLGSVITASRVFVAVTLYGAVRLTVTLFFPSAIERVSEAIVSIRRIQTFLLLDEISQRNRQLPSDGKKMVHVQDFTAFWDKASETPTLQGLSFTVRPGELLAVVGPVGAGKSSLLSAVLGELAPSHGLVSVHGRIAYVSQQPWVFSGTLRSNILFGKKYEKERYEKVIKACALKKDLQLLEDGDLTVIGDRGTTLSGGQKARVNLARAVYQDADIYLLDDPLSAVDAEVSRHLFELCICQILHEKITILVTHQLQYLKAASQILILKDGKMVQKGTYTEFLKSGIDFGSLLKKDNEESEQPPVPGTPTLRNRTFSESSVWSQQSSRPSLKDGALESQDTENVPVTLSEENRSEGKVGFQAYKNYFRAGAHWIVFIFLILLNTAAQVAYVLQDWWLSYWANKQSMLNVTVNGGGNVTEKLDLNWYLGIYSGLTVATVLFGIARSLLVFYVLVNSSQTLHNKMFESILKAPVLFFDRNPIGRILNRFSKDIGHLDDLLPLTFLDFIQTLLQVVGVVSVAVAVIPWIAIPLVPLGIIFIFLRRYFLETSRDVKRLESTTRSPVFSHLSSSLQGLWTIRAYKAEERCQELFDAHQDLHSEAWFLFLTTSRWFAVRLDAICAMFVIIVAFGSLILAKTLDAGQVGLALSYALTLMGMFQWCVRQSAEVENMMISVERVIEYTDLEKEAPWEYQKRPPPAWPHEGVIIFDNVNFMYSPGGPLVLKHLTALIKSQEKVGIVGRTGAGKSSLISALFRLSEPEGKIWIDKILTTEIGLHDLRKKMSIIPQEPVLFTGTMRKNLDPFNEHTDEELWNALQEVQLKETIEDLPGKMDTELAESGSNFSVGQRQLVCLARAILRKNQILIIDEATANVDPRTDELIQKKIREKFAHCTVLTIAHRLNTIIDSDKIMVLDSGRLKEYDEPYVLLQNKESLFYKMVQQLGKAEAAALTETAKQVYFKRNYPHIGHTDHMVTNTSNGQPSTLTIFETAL
Description: inhibition of basal ATPase activity, ABCC4 in lipid nanodiscs, logistic fit. In kind it is biochemical.

`OCCN(CCO)c1nc(N2CCCCC2)c2nc(N(CCO)CCO)nc(N3CCCCC3)c2n1` [dipyridamole]: the IC50 is about 2100 nM.

A word on the IC50: it is the concentration at which inhibition is half-maximal. Low readings indicate higher potency, high ones lower potency.
